The record followed here is ChEMBL document CHEMBL3244239, “Potential antitumor agents. Synthesis, reactivity, and cytoxicity of alpha-methylene carbonyl compounds” (1978).

Converted amounts (≈) assume the structure as drawn. Some results are limits rather than exact numbers.

This assay has as its system KB. Kind of assay: Cytotoxicity against human KB cells. It counts as functional. The following applies: read-out: ED50 (the source's name).
Turning to `O=C1OCC/C1=C\OCCCO/C=C1\CCOC1=O`, the EC50 is above 100 µg/mL. As to `O=C1OCC/C1=C\OC(=O)c1ccccc1`, the EC50 was 100 µg/mL (≈ 458 µM). Regarding `O=C1OCC/C1=C\CCC/C=C1\CCOC1=O`, the EC50 is above 100 µg/mL.

Consider `C=C1C(=O)O[C@@H]2[C@@H]3[C@H](C[C@H]12)[C@@H]1C=C[C@@H]3C1`, for which the EC50 stood at 1 µg/mL (≈ 4.94 µM). On to `C=C1CC(CCCC2CC(=C)C(=O)O2)OC1=O` (stereo not drawn), for which the EC50 came out at 4 µg/mL (≈ 16.9 µM). In the case of `C=C1C(=O)O[C@@H]2CCCC[C@@H]12` (relative stereo), the EC50 is 38 µg/mL (≈ 250 µM). Turning to `C=C(C)C(=O)O[C@H]1CC2=C[C@@H](C[C@@]3(C)O[C@@H]3[C@H]3OC(=O)C(=C)[C@@H]31)OC2=O` [ELEPHANTOPIN], the EC50 came out at 1 µg/mL (≈ 2.77 µM). With `C=C1CCOC1=O` [TULIPALINE A], the EC50 was found to be 16 µg/mL (≈ 163 µM).
